Reference: patent US20120082684A1, “DIAGNOSIS AND TREATMENT OF CELL PROLIFERATION AND DIFFERENTIATION DISORDERS BASED ON THE FMN2 GENE” (UNIVERSITY COURT OF THE UNIVERSITY OF DUNDEE, priority 2009, published 2012)

Tests used:
NARF2 cells [1] = assay: Rescue of FMN2 depletion by co-transfection of siRNAs, Western blot (FIG. 14); type: cell-based, human; conditions: co-transfection of both PA28γ siRNA and Skp2 siRNA with FMN2 siRNA, with/without p14ARF induction
Procedure: (§1) siRNA experiments. siRNA duplex oligo ribonucleotides were synthesised by MWG and transfected using Interferin (Polyplus) as per manufacturers instruction. In brief, cells were plated the day before transfection at the concentration of 2×10^5 cells per well in 6 well plates. The following day, cells were transfected with the final concentration of 5 nM of siRNA oligoribonucleotides in fresh media, final volume of 2.2 ml. Cells were incubated for a further 48 hours prior to harvesting. IPTG was added for 24 hours unless otherwise stated. siRNA sequences are described here (Control: 5′-CAGUCGCGUUUGCGACUGG-3′, FMN2-5′-GUAUACCAGGUCUCCUCAA-3′, PA28γ-5′-GAAUCAAUAUGUCACUCUA-3′, Skp2-5′-ACUCAAGUCCAGCCAUAAG-3′).).
FIG. 14. […] Detection of protein levels for endogenous FMN2, Skp2, PA28G, p21, p14ARF and Actin following transfection of NARF2 cells using either siRNAs for FMN2 (see FIG. 15A for location of siRNA target sequence), PA28γ, Skp2 and control (Control) with/without p14ARF induction (+/blank). An equivalent amount of NARF2 extract was loaded for each lane and the proteins separated by SDS PAGE, electroblotted and probed both with a monoclonal anti-PA28γ and polyclonal anti-FMN2, anti-Skp2, anti-p21, anti-p14ARF and with anti-Actin as a loading control.

NARF2 cells [2] = assay: siRNA knock-down in NARF2 cells, protein levels by blot (FIG. 10); type: cell-based, human; conditions: 5 nM siRNA, 48 hours, with or without 24 hours IPTG
Procedure: FIG. 10. siRNA approach for FMN2. NARF2 cells were treated with Control, DNA-PK, or FMN2 siRNA and harvested 48 hours with or without 24 hours IPTG induction.
siRNA duplex oligonucleotides were synthesised by MWG and transfected using Interferin (Polyplus) as per manufacturers instruction. In brief, cells were plated the day before transfection at the concentration of 2×10^5 cells per well in 6 well plates. The following day, cells were transfected with the final concentration of 5 nM of siRNA oligonucleotides in fresh media, final volume of 2.2 ml. Cells were incubated for additional 48 hours prior to harvesting. IPTG was added for 24 hours unless otherwise stated. siRNA sequences were described here (Control: CAGUCGCGUUUGCGACUGG, FMN2-GUAUACCAGGUCUCCUCAA). MG132 was purchased from Merck Chemicals and used at the final concentration of 50 μM.
To analyse the function of the FMN2 protein in cells, we designed five siRNAs to suppress FMN2 expression. […] (FIG. 10a). […] In contrast, siRNA knock-down of DNA-PK causes a decrease in the levels of both puma and p21 (FIG. 10b).
as §1

| Substance | rescue of p21 inactivation following FMN2 depletion (NARF2 cells [1]) | FMN2 expression after siRNA (NARF2 cells [2]) | effect on Hdm2 (NARF2 cells [2]) | effect on p53 (NARF2 cells [2]) | p21 level (NARF2 cells [2]) | puma level (NARF2 cells [2]) |
| --- | --- | --- | --- | --- | --- | --- |
| 5′-ACUCAAGUCCAGCCAUAAG-3′ [Skp2 siRNA] | partially rescued | – | – | – | – | – |
| 5′-GAAUCAAUAUGUCACUCUA-3′ [PA28γ siRNA] | partially rescued | – | – | – | – | – |
| 5′-GUAUACCAGGUCUCCUCAA-3′ [FMN2 siRNA] | – | successful in suppressing FMN2 expression | didn't see any effect | didn't see any effect | severely reduced | does not affect puma levels |
